Reference: ChEMBL document CHEMBL1140104, “Chlorogenic acid derivatives with alkyl chains of different lengths and orientations: potent alpha-glucosidase inhibitors” (J Med Chem, 2008)
Counter-ions that a name gives are not always drawn.

Key:
[1] = Inhibition of Saccharomyces cerevisiae alpha-glucosidase
[2] = Inhibition of Bacillus stearothermophilus alpha-glucosidase; parameters: species or system Geobacillus stearothermophilus
[3] = Stability in artificial intestinal juice at 10 mM after 12 hrs; format: physicochemical; details: simulated gi fluid, 10000 µM
[4] = Stability in artificial gastric juice at 10 mM after 48 hrs; format: physicochemical; details: simulated gi fluid, 10000 µM

| Structure (SMILES) | IC50 [1] [µM] | IC50 [2] [µM] | Stability [3] | Stability [4] |
| --- | --- | --- | --- | --- |
| CCCCCCCC[C@H]1O[C@H]2[C@H](OC(=O)/C=C/c3ccc(O)c(O)c3)C[C@]3(C[C@H]2O1)O[C@@H](CCCCCCCC)OC3=O | 0.3 | 0.8 |  |  |
| CCCCCC1(CCCCC)O[C@H]2[C@H](OC(=O)/C=C/c3ccc(O)c(O)c3)C[C@]3(C[C@H]2O1)OC(CCCCC)(CCCCC)OC3=O | 0.8 | 1.1 |  |  |
| CCCCCCCC[C@@H]1O[C@H]2[C@H](OC(=O)/C=C/c3ccc(O)c(O)c3)C[C@]3(C[C@H]2O1)O[C@@H](CCCCCCCC)OC3=O | 0.3 | 0.7 | Stable | Stable |
| CCCCCCCCC1(CCCCCCCC)OC(=O)[C@@]2(C[C@@H](O)[C@@H](O)[C@H](OC(=O)/C=C/c3ccc(O)c(O)c3)C2)O1 | 3 | 5.1 |  |  |
| CCCCCCCC[C@@H]1OC(=O)[C@]2(C[C@@H](OC(=O)/C=C/c3ccc(O)c(O)c3)[C@@H]3O[C@H](CCCCCCCC)O[C@@H]3C2)O1 | 1 | 2 |  |  |
| CCCCC1(CCCC)O[C@H]2[C@H](OC(=O)/C=C/c3ccc(O)c(O)c3)C[C@]3(C[C@H]2O1)OC(CCCC)(CCCC)OC3=O | 0.3 | 0.8 |  |  |
| CCCCCCC1(CCCCCC)O[C@H]2[C@H](OC(=O)/C=C/c3ccc(O)c(O)c3)C[C@]3(C[C@H]2O1)OC(CCCCCC)(CCCCCC)OC3=O | 0.5 | 0.8 |  |  |
| CCCC1(CCC)OC(=O)[C@@]2(C[C@@H](O)[C@@H](O)[C@H](OC(=O)/C=C/c3ccc(O)c(O)c3)C2)O1 | 19.4 | 62.2 |  |  |
| CCCCCCCC[C@@H]1OC(=O)[C@@]2(C[C@@H](O)[C@@H](O)[C@H](OC(=O)/C=C/c3ccc(O)c(O)c3)C2)O1 | 3.3 | 10.9 |  |  |
| CCCCCCCC[C@@H]1O[C@H]2[C@H](OC(=O)/C=C/c3ccc(O)c(O)c3)C[C@]3(C[C@H]2O1)O[C@H](CCCCCCCC)OC3=O | 0.8 | 1.8 |  |  |
| CC1(C)O[C@H]2[C@H](OC(=O)/C=C/c3ccc(O)c(O)c3)C[C@]3(C[C@H]2O1)OC(C)(C)OC3=O | 391 | 154 |  |  |
| CCCCCCCC1(CCCCCCC)OC(=O)[C@@]2(C[C@@H](O)[C@@H](O)[C@H](OC(=O)/C=C/c3ccc(O)c(O)c3)C2)O1 | 4.3 | 3.6 |  |  |
| CCCCCCCCC1(CCCCCCCC)O[C@H]2[C@H](OC(=O)/C=C/c3ccc(O)c(O)c3)C[C@]3(C[C@H]2O1)OC(CCCCCCCC)(CCCCCCCC)OC3=O | 0.5 | 0.9 |  |  |
| OC[C@H]1NC[C@H](O)[C@@H](O)[C@@H]1O [DUVOGLUSTAT HYDROCHLORIDE] | 1.8 | 2.4 |  |  |
| CCCC1(CCC)O[C@H]2[C@H](OC(=O)/C=C/c3ccc(O)c(O)c3)C[C@]3(C[C@H]2O1)OC(CCC)(CCC)OC3=O | 3.3 | 5.5 |  |  |
| CCC1(CC)OC(=O)[C@@]2(C[C@@H](O)[C@@H](O)[C@H](OC(=O)/C=C/c3ccc(O)c(O)c3)C2)O1 | 71.1 | 128 |  |  |
| O=C(/C=C/c1ccc(O)c(O)c1)O[C@@H]1C[C@](O)(C(=O)O)C[C@@H](O)[C@H]1O [CHLOROGENIC ACID] | > 2820 | 2820 |  |  |
| CCCCC1(CCCC)OC(=O)[C@@]2(C[C@@H](O)[C@@H](O)[C@H](OC(=O)/C=C/c3ccc(O)c(O)c3)C2)O1 | 3.4 | 14.4 |  |  |
| CCCCCC1(CCCCC)OC(=O)[C@@]2(C[C@@H](O)[C@@H](O)[C@H](OC(=O)/C=C/c3ccc(O)c(O)c3)C2)O1 | 3.6 | 14.2 |  |  |
| CCCCCCC1(CCCCCC)OC(=O)[C@@]2(C[C@@H](O)[C@@H](O)[C@H](OC(=O)/C=C/c3ccc(O)c(O)c3)C2)O1 | 3.4 | 3.9 |  |  |
| CCCCCCCC1(CCCCCCC)O[C@H]2[C@H](OC(=O)/C=C/c3ccc(O)c(O)c3)C[C@]3(C[C@H]2O1)OC(CCCCCCC)(CCCCCCC)OC3=O | 0.4 | 0.9 |  |  |
| CCCCCCCC[C@H]1OC(=O)[C@@]2(C[C@@H](O)[C@@H](O)[C@H](OC(=O)/C=C/c3ccc(O)c(O)c3)C2)O1 | 3.6 | 12.5 |  |  |
| CC1(C)OC2Cc3c(O)cc(O)cc3O[C@@H]2c2cc(O)c(O)cc21 (some centres undefined) | 18.5 | 29.6 |  |  |
| CCC1(CC)O[C@H]2[C@H](OC(=O)/C=C/c3ccc(O)c(O)c3)C[C@]3(C[C@H]2O1)OC(CC)(CC)OC3=O | 26.5 | 44.9 |  |  |
| C[C@H]1O[C@H](O[C@H]2[C@H](O)[C@@H](O)[C@@H](O[C@H]3[C@H](O)[C@@H](O)C(O)O[C@@H]3CO)O[C@@H]2CO)[C@H](O)[C@@H](O)[C@@H]1N[C@H]1C=C(CO)[C@@H](O)[C@H](O)[C@H]1O (some centres undefined) [ACARBOSE] | 0.1 | 0.1 |  |  |
| CC1(C)OC(=O)[C@@]2(C[C@@H](O)[C@@H](O)[C@H](OC(=O)/C=C/c3ccc(O)c(O)c3)C2)O1 | 114 | 2540 |  |  |
